The structures appear in SMILES notation.

The target in the first experiment is T1, hNET (Homo sapiens, UniProt P23975). The experiment in a line: biochemical. The class given is binding. The settings on record: read-out: Inhibition of [125I]RTI-55 binding Ki ± sem, hNET.
T1 sequence (P23975 whole entry): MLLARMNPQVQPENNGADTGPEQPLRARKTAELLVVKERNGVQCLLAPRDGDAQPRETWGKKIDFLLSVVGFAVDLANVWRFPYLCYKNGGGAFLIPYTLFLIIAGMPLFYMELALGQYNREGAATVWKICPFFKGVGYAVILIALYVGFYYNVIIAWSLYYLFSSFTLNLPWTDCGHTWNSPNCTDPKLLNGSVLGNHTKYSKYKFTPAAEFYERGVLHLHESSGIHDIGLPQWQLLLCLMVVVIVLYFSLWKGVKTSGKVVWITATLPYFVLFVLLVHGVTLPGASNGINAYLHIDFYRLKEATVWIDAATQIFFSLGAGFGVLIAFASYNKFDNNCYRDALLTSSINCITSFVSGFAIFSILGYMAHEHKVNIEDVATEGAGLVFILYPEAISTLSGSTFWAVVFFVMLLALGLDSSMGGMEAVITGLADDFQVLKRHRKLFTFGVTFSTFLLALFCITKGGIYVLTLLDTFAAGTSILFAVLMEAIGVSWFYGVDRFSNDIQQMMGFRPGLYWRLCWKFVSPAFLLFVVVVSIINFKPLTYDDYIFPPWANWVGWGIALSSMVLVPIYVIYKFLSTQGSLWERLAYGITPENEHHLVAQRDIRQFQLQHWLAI
The term Ki denotes a measure of affinity in units of concentration, obtained from inhibition or displacement. Turning to `CCCC(C(=O)c1ccc(F)cc1)N1CCCC1` (stereo not drawn) [4-F-α-PVP, 4-fluoro-α–pyrrolidinopentiophenone], the Ki amounted to 1100 nM.

The experiment is the same for the next values; noted with them: read-out: Inhibition of [125I]RTI-55 binding Ki ± sem, hNET; HEK-hNET membranes.
As to `CCCNC(CCC)C(=O)c1ccccc1` (stereo not drawn) [N-propyl pentedrone, α-propylaminopentiophenone], the Ki was 3760 ± 820 nM.

Take `CCCC(NCC)C(=O)c1ccc(C)cc1` (stereo not drawn) [4-MEAP, 4-methyl-α-ethylaminopentiophenone]: the Ki came to 576 ± 85 nM.

As for `CCCNC(C)C(=O)c1ccc2c(c1)OCO2` (stereo not drawn) [PRONE, 3,4-methylenedioxy-N-propylcathinone], the inhibition constant Ki came out at 22500 ± 8500 nM.

Regarding `CCC(C(=O)c1ccc2c(c1)OCO2)N(C)C` (stereo not drawn) [Dibutylone, bk-DMBDB], the inhibition constant (Ki) was found to be 8400 ± 2100 nM.

For the compound `CCCC(NCC)C(=O)c1ccccc1` (stereo not drawn) [α-EPP, α-ethylaminopentiophenone], the Ki stood at 700 ± 180 nM.

For the compound `CCNC(C)Cc1ccc2ccoc2c1` (stereo not drawn) [6-EAPB, N-ethyl-α-methyl-6-benzofuranethanamine], the inhibition constant (Ki) came out at 772 ± 44 nM.

Regarding `CCCC(C(=O)c1ccc2c(c1)OCO2)N(C)C` (stereo not drawn) [bk-DMBDP, N,N-dimethylpentylone], the Ki stood at 2000 ± 140 nM.

For `CCCCC(NCC)C(=O)c1ccccc1` (stereo not drawn) [N-Et-Hexedrone, α-ethylaminohexanophenone], the Ki was 1260 ± 43 nM.

As for `CCCC(NC)C(=O)c1ccc(Cl)cc1` (stereo not drawn) [4-CPD, 4-chloro pentedrone], the inhibitory constant (Ki) was found to be 4540 ± 890 nM.

Turning to `CCCC(NC)C(=O)c1ccc(C)cc1` (stereo not drawn) [4-MPD, 4-methyl pentedrone], the Ki worked out at 3390 ± 480 nM.

For a further experiment, the target named is T1, hNET. The experiment in a line: cell-based. The following applies: read-out: Inhibition of [3H]neurotransmitter uptake IC50 ± sem, hNET [3H]NE.
Broadly, the IC50 is the concentration at which inhibition is half-maximal. For the compound `CCCC(C(=O)c1ccc(F)cc1)N1CCCC1` (stereo not drawn) [4-F-α-PVP, 4-fluoro-α–pyrrolidinopentiophenone], the IC50 was determined as 118 nM.

Staying with this experiment, now noted: read-out: Inhibition of [3H]neurotransmitter uptake IC50 ± sem, hNET [3H]NE; HEK-hNET cells.
As to `CCCNC(CCC)C(=O)c1ccccc1` (stereo not drawn) [N-propyl pentedrone, α-propylaminopentiophenone], the IC50 was 306 ± 79 nM.

Consider `CCCC(NCC)C(=O)c1ccc(C)cc1` (stereo not drawn) [4-MEAP, 4-methyl-α-ethylaminopentiophenone], for which the 50% inhibitory concentration (IC50) was found to be 83 ± 18 nM.

Take `CCCNC(C)C(=O)c1ccc2c(c1)OCO2` (stereo not drawn) [PRONE, 3,4-methylenedioxy-N-propylcathinone]: the half-maximal inhibitory concentration (IC50) is 6040 ± 890 nM.

In the case of `CCC(C(=O)c1ccc2c(c1)OCO2)N(C)C` (stereo not drawn) [Dibutylone, bk-DMBDB], the IC50 was determined as 923 ± 44 nM.

Regarding `CCCC(NCC)C(=O)c1ccccc1` (stereo not drawn) [α-EPP, α-ethylaminopentiophenone], the IC50 is 101 ± 24 nM.

With `CCNC(C)Cc1ccc2ccoc2c1` (stereo not drawn) [6-EAPB, N-ethyl-α-methyl-6-benzofuranethanamine], the 50% inhibitory concentration (IC50) was 42 ± 14 nM.

For the compound `CCCC(C(=O)c1ccc2c(c1)OCO2)N(C)C` (stereo not drawn) [bk-DMBDP, N,N-dimethylpentylone], the IC50 was found to be 212 ± 68 nM.

For `CCCCC(NCC)C(=O)c1ccccc1` (stereo not drawn) [N-Et-Hexedrone, α-ethylaminohexanophenone], the IC50 came out at 97.8 ± 8.3 nM.

Regarding `CCCC(NC)C(=O)c1ccc(Cl)cc1` (stereo not drawn) [4-CPD, 4-chloro pentedrone], the IC50 was 470 ± 140 nM.

Take `CCCC(NC)C(=O)c1ccc(C)cc1` (stereo not drawn) [4-MPD, 4-methyl pentedrone]: the half-maximal inhibitory concentration (IC50) was 307 ± 61 nM.

The target in the next experiment is T2, hDAT (Homo sapiens, UniProt Q01959). The experiment in a line: Inhibition of [3H]DA uptake by HEK-hDAT cells. The class given is cell-based. The following applies: 1/(DAT IC50) divided by 1/(SERT IC50), uptake; higher = more DAT selective.
T2 sequence (Q01959 whole entry): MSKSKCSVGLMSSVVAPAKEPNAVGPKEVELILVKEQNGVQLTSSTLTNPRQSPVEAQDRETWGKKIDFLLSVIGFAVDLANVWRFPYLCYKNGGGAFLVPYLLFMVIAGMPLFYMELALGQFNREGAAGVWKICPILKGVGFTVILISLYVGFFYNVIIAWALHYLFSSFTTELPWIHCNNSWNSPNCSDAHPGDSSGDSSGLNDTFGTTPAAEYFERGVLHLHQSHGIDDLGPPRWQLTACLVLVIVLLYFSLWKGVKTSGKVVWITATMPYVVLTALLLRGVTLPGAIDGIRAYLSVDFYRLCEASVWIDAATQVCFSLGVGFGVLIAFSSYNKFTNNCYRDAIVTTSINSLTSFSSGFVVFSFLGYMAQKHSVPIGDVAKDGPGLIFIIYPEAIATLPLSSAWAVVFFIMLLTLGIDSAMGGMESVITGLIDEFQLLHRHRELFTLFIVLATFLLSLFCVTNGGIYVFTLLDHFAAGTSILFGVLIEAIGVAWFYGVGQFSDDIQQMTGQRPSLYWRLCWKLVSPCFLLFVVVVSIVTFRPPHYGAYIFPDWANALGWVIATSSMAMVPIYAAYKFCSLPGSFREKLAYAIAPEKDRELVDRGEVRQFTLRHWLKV
Regarding `CCCNC(CCC)C(=O)c1ccccc1` (stereo not drawn) [N-propyl pentedrone, α-propylaminopentiophenone], the “Ratio DAT/SERT” value was found to be 330.

Consider `CCCC(NCC)C(=O)c1ccc(C)cc1` (stereo not drawn) [4-MEAP, 4-methyl-α-ethylaminopentiophenone], for which the “Ratio DAT/SERT” value is 6.4.

Regarding `CCCNC(C)C(=O)c1ccc2c(c1)OCO2` (stereo not drawn) [PRONE, 3,4-methylenedioxy-N-propylcathinone], the “Ratio DAT/SERT” value is recorded as 0.95.

Consider `CCCC(C(=O)c1ccc(F)cc1)N1CCCC1` (stereo not drawn) [4-F-α-PVP, 4-fluoro-α–pyrrolidinopentiophenone], for which the “Ratio DAT/SERT” value is recorded as 360.

Turning to `CCC(C(=O)c1ccc2c(c1)OCO2)N(C)C` (stereo not drawn) [Dibutylone, bk-DMBDB], the “Ratio DAT/SERT” value is more than 32.

Regarding `CCCC(NCC)C(=O)c1ccccc1` (stereo not drawn) [α-EPP, α-ethylaminopentiophenone], the “Ratio DAT/SERT” value came to 64.

For the compound `CCNC(C)Cc1ccc2ccoc2c1` (stereo not drawn) [6-EAPB, N-ethyl-α-methyl-6-benzofuranethanamine], the “Ratio DAT/SERT” value came to 1.4.

Turning to `CCCC(C(=O)c1ccc2c(c1)OCO2)N(C)C` (stereo not drawn) [bk-DMBDP, N,N-dimethylpentylone], the “Ratio DAT/SERT” value is 11.

Take `CCCCC(NCC)C(=O)c1ccccc1` (stereo not drawn) [N-Et-Hexedrone, α-ethylaminohexanophenone]: the “Ratio DAT/SERT” value is 100.

For `CCCC(NC)C(=O)c1ccc(Cl)cc1` (stereo not drawn) [4-CPD, 4-chloro pentedrone], the “Ratio DAT/SERT” value was determined as 1.3.

Staying with this experiment, now noted: compared to pentedrone.
As to `CCCC(NCC)C(=O)c1ccc(C)cc1` (stereo not drawn) [4-MEAP, 4-methyl-α-ethylaminopentiophenone], the “fold decrease in hDAT selectivity” value is 8 fold.

The same experiment, now with this note: compared to α-EPP.
As for `CCCC(NCC)C(=O)c1ccc(C)cc1` (stereo not drawn) [4-MEAP, 4-methyl-α-ethylaminopentiophenone], the “fold decrease in DAT selectivity” value came to 10 fold.

Another experiment deals with T3, hSERT (Homo sapiens, UniProt P31645). The experiment is described as follows: Inhibition of [3H]5-HT uptake by HEK-hSERT cells. The experiment is classed as cell-based. The following applies: compared to pentedrone.
T3 sequence (P31645 whole entry): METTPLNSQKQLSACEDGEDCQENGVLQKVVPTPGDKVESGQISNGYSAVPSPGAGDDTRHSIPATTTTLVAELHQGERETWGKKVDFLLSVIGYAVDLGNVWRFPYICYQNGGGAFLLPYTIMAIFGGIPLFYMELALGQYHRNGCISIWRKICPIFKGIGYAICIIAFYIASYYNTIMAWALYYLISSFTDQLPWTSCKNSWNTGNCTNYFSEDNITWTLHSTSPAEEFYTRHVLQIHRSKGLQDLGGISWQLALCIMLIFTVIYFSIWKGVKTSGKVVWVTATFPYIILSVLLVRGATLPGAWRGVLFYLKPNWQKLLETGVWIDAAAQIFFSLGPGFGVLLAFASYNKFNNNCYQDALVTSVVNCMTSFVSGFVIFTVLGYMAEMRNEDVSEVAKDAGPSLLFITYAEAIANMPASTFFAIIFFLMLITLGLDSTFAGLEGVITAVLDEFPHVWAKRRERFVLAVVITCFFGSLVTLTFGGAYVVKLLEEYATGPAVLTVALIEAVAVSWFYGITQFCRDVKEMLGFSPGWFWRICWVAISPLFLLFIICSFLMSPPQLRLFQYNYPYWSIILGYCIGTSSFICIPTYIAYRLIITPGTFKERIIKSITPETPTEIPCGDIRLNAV
With `CCCC(NCC)C(=O)c1ccc(C)cc1` (stereo not drawn) [4-MEAP, 4-methyl-α-ethylaminopentiophenone], the “fold increase in hSERT uptake potency” value was found to be 8 fold.

In the case of `CCCC(NC)C(=O)c1ccc(Cl)cc1` (stereo not drawn) [4-CPD, 4-chloro pentedrone], the “fold increase in hSERT uptake potency” value is recorded as 15- to 17 fold.

Regarding `CCCC(NC)C(=O)c1ccc(C)cc1` (stereo not drawn) [4-MPD, 4-methyl pentedrone], the “fold increase in hSERT uptake potency” value is 15- to 17 fold.

A further experiment has as its target T3, hSERT. The experiment in a line: Inhibition of [125I]RTI-55 binding, HEK-hSERT membranes. The following applies: compared to pentedrone.
`CCCC(NCC)C(=O)c1ccc(C)cc1` (stereo not drawn) [4-MEAP, 4-methyl-α-ethylaminopentiophenone]: the “fold increase in hSERT affinity” value is 20 fold.

The next experiment has as its target T2, hDAT. The experiment in a line: Inhibition of [125I]RTI-55 binding, HEK-hDAT membranes. The following applies: compared to pentedrone.
On to `CCCC(NC)C(=O)c1ccc(Cl)cc1` (stereo not drawn) [4-CPD, 4-chloro pentedrone], for which the “fold decrease in hDAT affinity” value was 4- to 5 fold.

On to `CCCC(NC)C(=O)c1ccc(C)cc1` (stereo not drawn) [4-MPD, 4-methyl pentedrone], for which the “fold decrease in hDAT affinity” value is listed as 4- to 5 fold.

The same experiment, now with this note: read-out: Inhibition of [125I]RTI-55 binding Ki ± sem, hDAT; HEK-hDAT membranes.
Turning to `CCCNC(CCC)C(=O)c1ccccc1` (stereo not drawn) [N-propyl pentedrone, α-propylaminopentiophenone], the Ki turned out to be 389 ± 67 nM.

With `CCCC(NCC)C(=O)c1ccc(C)cc1` (stereo not drawn) [4-MEAP, 4-methyl-α-ethylaminopentiophenone], the inhibition constant (Ki) is 123 ± 26 nM.

For `CCCNC(C)C(=O)c1ccc2c(c1)OCO2` (stereo not drawn) [PRONE, 3,4-methylenedioxy-N-propylcathinone], the inhibition constant Ki is 6800 ± 1900 nM.

In the case of `CCCC(C(=O)c1ccc(F)cc1)N1CCCC1` (stereo not drawn) [4-F-α-PVP, 4-fluoro-α–pyrrolidinopentiophenone], the Ki was 376 ± 70 nM.

With `CCC(C(=O)c1ccc2c(c1)OCO2)N(C)C` (stereo not drawn) [Dibutylone, bk-DMBDB], the Ki stood at 581 ± 76 nM.

With `CCCC(NCC)C(=O)c1ccccc1` (stereo not drawn) [α-EPP, α-ethylaminopentiophenone], the inhibition constant (Ki) is 182 ± 22 nM.

With `CCNC(C)Cc1ccc2ccoc2c1` (stereo not drawn) [6-EAPB, N-ethyl-α-methyl-6-benzofuranethanamine], the Ki is 89 ± 22 nM.

For `CCCC(C(=O)c1ccc2c(c1)OCO2)N(C)C` (stereo not drawn) [bk-DMBDP, N,N-dimethylpentylone], the Ki was 354 ± 73 nM.

With `CCCCC(NCC)C(=O)c1ccccc1` (stereo not drawn) [N-Et-Hexedrone, α-ethylaminohexanophenone], the Ki worked out at 171 ± 38 nM.

Turning to `CCCC(NC)C(=O)c1ccc(Cl)cc1` (stereo not drawn) [4-CPD, 4-chloro pentedrone], the inhibition constant (Ki) is 1620 ± 400 nM.

Turning to `CCCC(NC)C(=O)c1ccc(C)cc1` (stereo not drawn) [4-MPD, 4-methyl pentedrone], the inhibition constant Ki turned out to be 1450 ± 310 nM.

Source of the values: paper PMC6500773 (Psychopharmacology, 2018).
